Laboratory results taken from ChEMBL document CHEMBL4393693, “Synthesis and Structure-Activity relationship of 1-(5-isoquinolinesulfonyl)piperazine analogues as inhibitors of Mycobacterium tuberculosis IMPDH” (Eur J Med Chem, 2019).

Test system: not listed separately
Assay: Selective ratio of inhibition of GuaB2 Tyr487Cys mutant in Mycobacterium tuberculosis H37Rv SRMV2.6 to inhibition of wild type GuaB2 in Mycobacterium tuberculosis H37Rv
O=C(Nc1ccc2c(c1)OCO2)N1CCN(S(=O)(=O)c2cccc3cnccc23)CC1 gave a Ratio of 4.
CC1CCCCC1C(=O)N1CCN(S(=O)(=O)c2cccc3cnccc23)CC1 (configuration not stated) gave a Ratio of 16 to 32.
Cc1ccccc1CNC(=O)N1CCN(S(=O)(=O)c2cccc3cnccc23)CC1 showed a Ratio of 16 to 32.
O=C(C1CCCCC1)N1CCN(S(=O)(=O)c2cccc3cnccc23)CC1 showed a Ratio of 32.
In the case of O=C(Nc1ccc2c(c1)OCO2)N1CCCN(S(=O)(=O)c2cccc3cnccc23)CC1, the Ratio is reported as 8 to 16.
CC1CN(S(=O)(=O)c2cccc3cnccc23)CCN1C(=O)Nc1ccc2c(c1)OCO2 (configuration not stated) showed a Ratio of 8 to 16.

Test system: Mycobacterium tuberculosis
Assay: Antimycobacterial activity against Mycobacterium tuberculosis H37Rv SRMV2.6 harboring GuaB2 Tyr487Cys mutant assessed as reduction in bacterial cell growth incubated for 3 to 4 weeks by alamar blue fluorescence based broth microdilution assay
Assay type: functional
COc1cccc(CNC(=O)N2CCN(S(=O)(=O)c3cccc4cnccc34)CC2)c1 showed an MIC90 greater than 100 µM.
